The test system of one data set is Bax. Description: Western blotting, Bax in AsPC-1 cells. The following applies: 4 μg/mL (FIG. 4). It counts as cell-based, human. As for the experimental part:
(§1) Western blotting. Cells were seeded into flasks and cultured to 50% to 60% confluence for 24 hours. Cells were then placed in serum-free medium with or without 4 μg/mL frondoside A for periods of 0, 24, 48 and 72 hours respectively. Proteins were extracted from attached and floating cells in lysis buffer containing 4% SDS. Protein concentrations were determined using the bicinchoninic acid assay with BSA as standard. Western blotting was carried out. In brief, equal amounts of protein in the cell lysates were separated on 15% SDS-PAGE and the proteins were transferred onto nitrocellulose membranes. After blocking non-specific sites with dried milk, membranes were incubated with the appropriate dilution of primary antibody. Membranes were then incubated with a horseradish peroxidase conjugated secondary antibody. Proteins were detected using an enhanced chemiluminescence detection system.
Background: Immunoblotting shows a protein as a band on a membrane.

Another data set has as its system AsPC-1 cells. Description: Morphological studies (apoptosis). It counts as cell-based, human. The following applies: 4 μg/mL, within 24 hours. As for the experimental part:
Morphological studies. The photomicrographs of cell morphological changes were taken with a Kodak DC 120 digital zoom camera under an inverted microscope (400×) following treatment with or without 4 μg/mL frondoside A for different time periods from 24 to 72 hours.

Data set [1] concerns AsPC-1 human pancreatic cancer xenografts. The experiment in a line: AsPC-1 xenografts in athymic mice. The following applies: 10 μg/kg/day intraperitoneal, 4 weeks. The class given is in vivo. As for the experimental part:
Animal Study. Athymic mice (BALB/c nu/nu, 5-week old females) were purchased from Charles River Laboratories (Wilmington, Mass.). Mice were acclimatized to the animal facility for one week prior to receiving xenografts. Xenografts of three million AsPC-1 cells were injected into the flanks of mice. Once visible tumors were evidenced 4–5 days after injection, the animals were divided equally into two groups (6 animals/group) and treated with frondoside A (10 μg/kg/day) or control vehicle (100 μL phosphate-buffered saline, PBS) by intraperitoneal injection. Animal weight and tumor size were recorded every three days. The formula used for tumor volume was (length)H(width)H(length+width/2)H0.526=volume (Naito et al., Int. J. Cancer 58:730 [1994]). After 4-weeks of treatment the animals were euthanized and the tumors were carefully dissected and tumor weights measured.

For a further data set, the system named is Mcl-1. The experiment in a line: Western blotting, Mcl-1 in AsPC-1 cells. Particulars: 4 μg/mL, time-dependent (FIG. 4). It counts as cell-based, human. As for the experimental part:
as §1

The test system of data set [2] is angiogenesis in the animal. The experiment in a line: Treatment of animals, anti-angiogenic evaluation (Example 6). The class given is in vivo. Particulars: contemplated; range of appropriate doses. As for the experimental part:
Frondoside A or B is evaluated for anti-angiogenic (e.g., for research, drug screening or therapeutic purposes) in live animals. Animals (e.g., having or modeling a disease characterized by unwanted angiogenesis) are treated with a range of appropriate doses of Frondoside A or B. Exemplary dosages and dosage schedules include, but are not limited to, those described herein.

Another data set has as its system caspase 3. The experiment in a line: Western blotting, caspase 3 in AsPC-1 cells. The following applies: 4 μg/mL, time-dependent (FIG. 3). It counts as cell-based, human. As for the experimental part:
as §1

For a further data set, the system named is cancer cells. The experiment in a line: Anti-cancer / apoptotic promoting activity, method not described. The following applies: no test described for Frondoside B.
The subject of another data set is caspase 7. The experiment in a line: Western blotting, caspase 7 in AsPC-1 cells. It counts as cell-based, human. Particulars: 4 μg/mL, time-dependent (FIG. 3). As for the experimental part:
as §1

Turning to `COC1C(O)C(CO)OC(OC2C(O)COC(OC3C(C)OC(OC4C(OC5CCC6(C)C7CCC89C(=O)OC(C)(CCCC(C)C)C8C(OC(C)=O)CC9(C)C7=CCC6C5(C)C)OCC(OS(=O)(=O)[O-])C4O)C(OC4OCC(O)C(O)C4O)C3O)C2O)C1O.[Na+]` [Frondoside A, 3-O-methyl-β-D-glucopyranosyl-(1→3)-β-D-xylopyranosyl-(1→4)-[β-D-xylopyranosyl-(1→2)]-β-D-quinovopyranosyl-(1→2)-4-O-sodium sulfate-β-D-xylopyranosyl-3-O-holost-7(8)-en-3β-ol-16β-O-acetate], in the data set on Bax, the “concentrations of the pro-apoptotic protein Bax” value is reported as “increased”. Besides, in the data set with AsPC-1 cells, the morphological changes result is on record as “marked morphological changes characteristic of apoptosis”. In addition, in data set [1] (athymic mice), the “body weights of control and treated animals” value is “no significant difference”; the “toxicity through the treatment period” value is “No toxicity was seen”. Moreover, in data set [1] (athymic mice (FIG. 6)), the “growth of subcutaneously transplanted AsPC-1 cells (tumor volume and tumor weight)” value was “markedly inhibited the growth”. The “expression of Mcl-1” value in the data set with Mcl-1 is reported as “decreased expression”. For the same compound, in data set [2], the “angiogenesis in the animal” value is listed as “inhibits angiogenesis”. In the data set on caspase 3, the “activation of caspase 3 (cleavage of procaspase 3)” value is “cleaved into products of lower molecular weight”. Besides, in the data set on cancer cells, the “apoptotic promoting activity in cancer cells” value is given as “apoptotic promoting activity”. For the same compound, in the data set on caspase 7, the “activation of caspase 7” value was “reduction in the amounts of the respective procaspase forms”.
